# Assay results taken from patent US20230203081A1, “LINCOSAMIDE ANTIBIOTICS AND USES THEREOF” (President and Fellows of Harvard College, priority 2020, published 2023).
# Assays:
# Format in all cases: cell-based
# [1] = system: E. faecalis ATCC 29212; experiment: MIC (broth microdilution or agar dilution, CLSI); conditions: Enterococcus faecalis, ATCC29212, E. faecalis HAV#005, ATCC 29212; read-out: MIC
# Procedure, shortened: (§1)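 Per CLSI, MICs by broth microdilution or agar dilution; strains other than streptococci and anaerobes were sub-cultured overnight at 35° C on blood agar, with a final broth inoculum of 5×10^5 CFU/mL.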
# [2] = system: S. pneumoniae MMX 3031 cMefA; experiment: MIC (broth microdilution or agar dilution, CLSI); conditions: Streptococcus pneumoniae, MMX3031CMEFA, S. pneumoniae HAV#034; MMX 3031, cMefA; read-out: MIC
# Procedure, shortened: as §1
# [3] = system: S. aureus ATCC 29213; experiment: MIC (broth microdilution or agar dilution, CLSI); conditions: Staphylococcus aureus, ATCC29213, S. aureus HAV#001, ATCC 29213, MP-549; read-out: MIC
# Procedure, shortened: as §1
# [4] = system: S. pyogenes MMX 946; cErmB; experiment: MIC (broth microdilution or agar dilution, CLSI); conditions: Streptococcus pyogenes; S. pyogenes HAV#035, MMX 946; cErmB, mac-resistant; read-out: MIC
# Procedure, shortened: as §1
# [5] = system: K. oxytoca Clinical; experiment: MIC (broth microdilution or agar dilution, CLSI); conditions: Klebsiella oxytoca; K. oxytoca HAV#450; Clinical; read-out: MIC
# Procedure, shortened: as §1
# [6] = system: S. aureus ATCC BAA-1707 (MRSA); experiment: MIC (broth microdilution or agar dilution, CLSI); conditions: Staphylococcus aureus; S. aureus HAV#016, ATCC BAA-1707; MRSA; read-out: MIC
# Procedure, shortened: as §1
# [7] = system: S. pneumoniae ATCC 49619; experiment: MIC (broth microdilution or agar dilution, CLSI); conditions: Streptococcus pneumoniae, ATCC49619, S. pneumoniae HAV#003, ATCC 49619; read-out: MIC
# Procedure, shortened: as §1
# [8] = system: S. pyogenes ATCC 19615; experiment: MIC (broth microdilution or agar dilution, CLSI); conditions: Streptococcus pyogenes, ATCC19615, S. pyogenes HAV#004, ATCC 19615; read-out: MIC
# Procedure, shortened: as §1
# [9] = system: S. aureus hVISA; experiment: MIC (broth microdilution or agar dilution, CLSI); conditions: Staphylococcus aureus; S. aureus HAV#204, hVISA; read-out: MIC
# Procedure, shortened: as §1
# [10] = system: S. pneumoniae MMX 3028 cErmB; experiment: MIC (broth microdilution or agar dilution, CLSI); conditions: Streptococcus pneumoniae, MMX3028CERMB; S. pneumoniae HAV#033; MMX 3028, cErmB; read-out: MIC
# Procedure, shortened: as §1
# [11] = system: E. faecalis MMX 847; cErmB; experiment: MIC (broth microdilution or agar dilution, CLSI); conditions: Enterococcus faecalis; E. faecalis HAV#036, MMX 847; mac-resistant, cErmB; read-out: MIC
# Procedure, shortened: as §1
# [12] = system: S. pneumoniae ATCC 6303; experiment: MIC (broth microdilution or agar dilution, CLSI); conditions: Streptococcus pneumoniae, ATCC6303; S. pneumoniae HAV#351, ATCC 6303; read-out: MIC
# Procedure, shortened: as §1
# [13] = system: S. aureus ATCC 700699; experiment: MIC (broth microdilution or agar dilution, CLSI); conditions: Staphylococcus aureus; S. aureus HAV#202, ATCC 700699 (VISA); read-out: MIC
# Procedure, shortened: as §1
# [14] = system: S. aureus MMX 3035 cErmA; experiment: MIC (broth microdilution or agar dilution, CLSI); conditions: Staphylococcus aureus, MMX3035CERMA; S. aureus HAV#031, MMX 3035; cErmA; read-out: MIC
# Procedure, shortened: as §1
# [15] = system: broad panel of different clinical isolates; experiment: microbe, parasite or virus in culture
# Procedure, shortened: as §1
structure (smiles),measurement,setting,value
C[C@H]1c2cccc(O)c2C(=O)C2=C(O)[C@]3(O)C(=O)C(C(N)=O)=C(O)[C@@H](N(C)C)[C@@H]3[C@@H](O)[C@@H]21 [Doxycycline],MIC,[1],4 µg/mL
same,MIC,[2],0.125 µg/mL
same,MIC,[3],0.25 µg/mL
same,MIC,[4],0.125 µg/mL
same,MIC,[5],8 µg/mL
same,MIC,[6],0.25 µg/mL
same,MIC,[7],0.125 µg/mL
same,MIC,[8],0.125 µg/mL
same,MIC,[9],16 µg/mL
same,MIC,[10],1 µg/mL
same,MIC,[11],16 µg/mL
same,MIC,[12],0.125 µg/mL
same,MIC,[13],16 µg/mL
same,MIC,[14],0.25 µg/mL
same,MIC,"[15]; Acinetobacter baumannii, A. baumannii HAV#651, Clinical",0.125 µg/mL
same,MIC,"[15]; Acinetobacter baumannii, A. baumannii HAV#652 Clinical",0.5 µg/mL
same,MIC,"[15]; Acinetobacter baumannii, A. baumannii HAV#653, Clinical",0.125 µg/mL
same,MIC,"[15]; Acinetobacter baumannii, A. baumannii HAV#654, Clinical",< 0.06 µg/mL
same,MIC,"[15]; Acinetobacter baumannii, A. baumannii HAV#655, Clinical",0.5 µg/mL
same,MIC,"[15]; Acinetobacter baumannii, A. baumannii HAV#656, Clinical",32 µg/mL
same,MIC,"[15]; Acinetobacter baumannii, A. baumannii HAV#657, Clinical",0.5 µg/mL
same,MIC,"[15]; Acinetobacter baumannii, A. baumannii HAV#658, Clinical",0.06 µg/mL
same,MIC,"[15]; Acinetobacter baumannii, A. baumannii HAV#659, Clinical",0.5 µg/mL
same,MIC,"[15]; Acinetobacter baumannii, A. baumannii HAV#660, Clinical",1 µg/mL
same,MIC,"[15]; Acinetobacter baumannii, A. baumannii HAV#661, Clinical",0.125 µg/mL
same,MIC,"[15]; Acinetobacter baumannii, A. baumannii HAV#662, Clinical",0.25 µg/mL
same,MIC,"[15]; Acinetobacter baumannii, A. baumannii HAV#663, Clinical",0.125 µg/mL
same,MIC,"[15]; Acinetobacter baumannii, A. baumannii HAV#664, Carbapenem R",2 µg/mL
same,MIC,"[15]; Enterococcus faecalis, E. faecalis HAV#602, Clincal",0.25 µg/mL
same,MIC,"[15]; Enterococcus faecalis, E. faecalis HAV#607, Clinical",1 µg/mL
same,MIC,"[15]; Enterococcus faecalis, E. faecalis HAV#608, Clinical",0.5 µg/mL
same,MIC,"[15]; Enterococcus faecalis, E. faecalis HAV#609, Clinical",8 µg/mL
same,MIC,"[15]; Enterococcus faecalis, E. faecalis HAV#610, Clinical",0.5 µg/mL
same,MIC,"[15]; Enterococcus faecalis, S. faecalis 5074, Line R",64 µg/mL
same,MIC,"[15]; Enterococcus faecalis, VRE, E. faecalis HAV#251, Clinical VRE",0.125 µg/mL
same,MIC,"[15]; Enterococcus faecalis, VRE, E. faecalis HAV#606, Clinical",16 µg/mL
same,MIC,"[15]; Enterococcus faecium, E. faecium HAV#317, Clinical",0.25 µg/mL
same,MIC,"[15]; Enterococcus faecium, E. faecium HAV#324, Clinical",0.25 µg/mL
same,MIC,"[15]; Enterococcus faecium, E. faecium HAV#327, Clinical",0.25 µg/mL
same,MIC,"[15]; Enterococcus faecium, E. faecium HAV#328, Clinical",0.25 µg/mL
same,MIC,"[15]; Enterococcus faecium, E. faecium HAV#329, Clinical",0.25 µg/mL
same,MIC,"[15]; Enterococcus faecium, VRE, E. faecium HAV#318, VanA",4 µg/mL
